The record followed here is patent publication US10973920B2, “Saccharide derivative of a toxic payload and antibody conjugates thereof” (priority 2014, dated 2021).

The term IC50 denotes the concentration that gives 50% inhibition. Lower therefore signals greater potency.

Several values for one entry are separate records, joined by “and”; a condition that tells them apart may be missing. Equal values may be shown once. Where a SMILES comes first, the peptide text is derived from it. [ ]: non-standard residue; d: D form. The star is where a group is joined. X1 = C[C@@H](N*)[C@@H](O[C@@H]1O[C@H](CO)[C@H](O)[C@H](O)[C@H]1O)c1ccccc1; Dolaproine = CO[C@@H]([C@@H]1CCCN1)[C@@H](C)C(=O)O; Dil = CC[C@H](C)[C@H](NC)[C@@H](CC(=O)O)OC; X2 = C[C@@H](N*)[C@@H](O)c1ccccc1; NMeV = CN[C@H](C(=O)O)C(C)C

This series deals with cancer cells (SKOV-3 and HSC-2). Kind of series: Cytotoxicity to cancer cells, PrestoBlue cell viability, 96 h. Particulars: for IC50: concentration wherein cancer cell viability falls to 50%, cell line not given. The procedure: Human ovarian cancer cell line SKOV-3 (ATCC, Manassas, Va., USA) and head-and-neck squamous cell carcinoma cell line HSC-2 (Japanese Collection of Research Bioresources, Osaka, Japan) were grown according to the suppliers' recommendations. Log phase cultures were collected and cells were seeded onto 96-well plates and incubated for 24 h. Serial dilutions of test molecules were added to cells and cultures were incubated further for 96 h. Cell viability was evaluated using PrestoBlue cell viability reagent (Life Technologies, Carlsbad, Calif., USA) according to the manufacturer's instructions. Cells were incubated for 2 h, and dye reduction was measured by absorbance at 570 nm. The compounds were assayed 1-2 times in triplicate.
The results are expressed in Table 1 as IC50 values.

Regarding `CC[C@H](C)[C@@H]([C@@H](CC(=O)N1CCC[C@H]1[C@H](OC)[C@@H](C)C(=O)N[C@H](C)[C@@H](O)c1ccccc1)OC)N(C)C(=O)[C@@H](NC(=O)[C@@H](NC)C(C)C)C(C)C` [MMAE, monomethylauristatin E] (H-[NMeV]V[Dil][Dolaproine]-X2), the IC50 is ~10 nM and 10 nM.
In the case of `CC[C@H](C)[C@@H]([C@@H](CC(=O)N1CCC[C@H]1[C@H](OC)[C@@H](C)C(=O)N[C@H](C)[C@@H](O[C@@H]1O[C@H](CO)[C@H](O)[C@H](O)[C@H]1O)c1ccccc1)OC)N(C)C(=O)[C@@H](NC(=O)[C@@H](NC)C(C)C)C(C)C` [MMAG, O-β-D-galactopyranosylmonomethylauristatin E] (H-[NMeV]V[Dil][Dolaproine]-X1), the IC50 was greater than 100 nM. Besides, the “Cytotoxicity (in words)” value (concentrations up to 100 nM) was “relatively non-toxic”.
